Measured values: US20210052608A1, “METHODS OF TREATING BACTERIAL INFECTIONS WITH MINOCYCLINE” (Melinta Therapeutics, Inc., priority 2018, published 2021)
Entries after “also recorded” stand apart in the source; their conditions may differ.

Columns and labels:
[1] = Plasma pharmacokinetics of minocycline, single ascending dose (SAD) phase, 1 hour intravenous infusion; design: species or system human (healthy adult subjects); conditions: human, in vivo; for half-life: mean, N=8
Description: (§1) This example describes outcomes among healthy adult subjects in a randomized, double-blind, placebo-controlled, single- and multiple ascending dose (SAD/MAD) study of 6 intravenous doses (cohorts) ranging from 100 mg to 600 mg of minocycline. […] Within each cohort, subjects received a single dose on Day 1, followed by a loading dose on Day 4, then 7 days of twice-daily dosing (Days 4-10), followed by a single dose on Day 11 as shown in Table 1. Within each cohort, subjects were randomly assigned to minocycline (n=8) or normal saline placebo (n=2). Serial blood and urine samples were collected for pharmacokinetic assessment. All infusions were administered over 1 hour. Plasma samples were obtained at 1 (end-of-infusion), 2, 4, 8, 12, 18, 24, 36, 48, and 72 hours after the start of dosing after single or multiple doses and assayed for minocycline content using a validated HPLC/MS method. Concentration of minocycline in healthy volunteers after a one hour IV infusion is shown in FIG. 1, while concentration of minocycline in healthy volunteers after a loading dose then twice daily dosing for seven days is shown in FIG. 2.

[2] = Plasma pharmacokinetics of minocycline, twice-daily ascending dose (MAD) phase, loading dose then BID dosing for 7 days; design: species or system human (healthy adult subjects); conditions: human, in vivo; for AUC(0-t): AUC0-t; for clearance: Cl (plasma clearance); for Vd: Vss (volume of distribution at steady state); for half-life: mean; for Cmax: iv
Description: as §1

[3] = Safety and tolerability (adverse events) in the SAD/MAD study of intravenous minocycline; format: in vivo, human (healthy adult subjects)
Description: This example describes outcomes among healthy adult subjects in a randomized, double-blind, placebo-controlled, single- and multiple ascending dose (SAD/MAD) study of 6 intravenous doses (cohorts) ranging from 100 mg to 600 mg of minocycline. Each cohort consisted of 10 subjects (8 active drug and 2 placebo). Within each cohort, subjects received a single dose on Day 1, followed by a loading dose on Day 4, then 7 days of twice-daily dosing (Days 4-10), followed by a single dose on Day 11 as shown in Table 1. Within each cohort, subjects were randomly assigned to minocycline (n=8) or normal saline placebo (n=2). Serial blood and urine samples were collected for pharmacokinetic assessment.
Safety was assessed throughout the study. Of the adverse events (AE) observed in more than 10% of subjects, the vast majority were assessed by the investigator as likely to be related to study drug (Table 5). A total of 21 subjects out of 57 discontinued the trial. Six of 10 subjects in cohort 4 discontinued during the MAD portion (400 mg BID) of the trial due to mild to moderate dizziness. Dosing was discontinued in the remaining 4 subjects in that cohort and cohorts 5 and 6 were limited to 300 mg BID for the MAD portion of the trial. Four subjects in cohort 6 (600 mg/300 mg) discontinued due to nausea.

[4] = Plasma pharmacokinetics of minocycline, single ascending dose (SAD) phase, 1 hour intravenous infusion; design: species or system human (healthy adult subjects); conditions: human, in vivo; single 600 mg IV dose, mean, N=9

## CN(C)c1ccc(O)c2c1C[C@H]1C[C@H]3[C@H](N(C)C)C(O)=C(C(N)=O)C(=O)[C@@]3(O)C(O)=C1C2=O [minocycline]
[1]; iv
  Dose proportionality of exposure: increased in a dose proportional fashion with exception of the 500 mg dose
[1]; iv, 100 mg
  AUC(0-inf): 9730 ng·h/mL
  clearance: 175 mL/min
[1]; iv, 200 mg
  AUC(0-inf): 25900 ng·h/mL
  clearance: 137 mL/min
[1]; iv, 300 mg
  AUC(0-inf): 39200 ng·h/mL
  clearance: 138 mL/min
[1]; iv, 400 mg
  AUC(0-inf): 63600 ng·h/mL
  clearance: 112 mL/min
[1]; iv, 500 mg
  AUC(0-inf): 53800 ng·h/mL
  clearance: 171 mL/min
[1]; iv, 600 mg
  AUC(0-inf): 83000 ng·h/mL
  clearance: 135 mL/min
[1]; single 100 mg IV dose
  half-life: 11.1 h
[1]; single 200 mg IV dose
  half-life: 13.7 h
[1]; single 300 mg IV dose
  half-life: 16.6 h
[1]; single 400 mg IV dose
  half-life: 17.6 h
[1]; single 500 mg IV dose
  half-life: 14.4 h
[2]; 100 mg
  AUC(0-t): 27500 ng·h/mL
  clearance: 58.2 mL/min
  Vd: 72 L
  Cmax: 1710 ng/mL
[2]; 100 mg, single dose 100 mg, BID dosing 100 mg, N=6
  half-life: 15.9 h
[2]; 200 mg
  AUC(0-t): 80700 ng·h/mL
  clearance: 41.3 mL/min
  Vd: 58.4 L
  Cmax: 4590 ng/mL
[2]; 200 mg, single dose 200 mg, BID dosing 200 mg, N=6
  half-life: 18.2 h
[2]; 300 mg
  AUC(0-t): 174000 ng·h/mL
  clearance: 32 mL/min
  Vd: 47 L
  Cmax: 8910 ng/mL
[2]; 300 mg, single dose 300 mg, BID dosing 300 mg, N=7
  half-life: 19.8 h
[2]; 300 mg, single dose 500 mg, BID dosing 300 mg, N=7
  half-life: 18.1 h
[2]; 300 mg, single dose 600 mg, BID dosing 300 mg, N=4
  half-life: 20.2 h
[2]; 300 mg, single dose 300, 500, or 600 mg (pooled), BID dosing 300 mg, N=18
  half-life: 19.2 h
[2]
  clearance: 44 mL/min
  Vd: 58.1 L
[3]; administered twice daily, IV
  Maximum tolerated multi-dose: 300 mg
[3]; cohort 6 (600 mg/300 mg)
  Subjects discontinued due to nausea in cohort 6: Four
[3]; human, in vivo
  Subjects reporting study drug related adverse events, %: 79.9%
  Subjects who discontinued the trial, total: 21
  Subjects with dizziness, %: 59.4%
  Subjects with dizziness, number: 41
  Subjects with moderate nausea and/or dizziness, number: 9
  Subjects with nausea, %: 50.7%
  Subjects with nausea, number: 35
[3]; human, in vivo, 7 days
  Subjects discontinued from study drug in the 400 mg cohort (cohort 4): 6
[3]; single IV doses up to 600 mg
  Tolerability of single intravenous doses: tolerated reasonably well
[3]; whole SAD/MAD study, 100 mg to 600 mg IV
  Serious adverse events: No serious adverse events occurred; also recorded: No serious adverse events (SAEs) were reported
[3]; whole study
  Most common adverse effects: mild nausea and dizziness
[4]
  half-life: 17.3 h
